Test results taken from patent US8697692B2, “Pyrrolo [3,2-c] pyridine-4-one 2-indolinone protein kinase inhibitors” (Shanghai Hengrui Pharmaceutical Co., Ltd., priority 2006, dated 2014).
pIC50: −log10 of the molar value.

Each molecule was assayed on A431 cell (assay: Cell Proliferation Inhibition EGFR Assay (SRB method)). Conditions: Homo sapiens, A-431, 72 h, read-out: IC50 (A431).
Assay type: cell-based, homo sapient
From the text: The following in vitro assay may be used to determine the level of activity and effect of different compounds of the present invention on the proliferation inhibition (cell toxic) of […] growth factor receptor (EGFR) high expressing homo […] cancer cell-A431 cell. The cellular assay described here measure the compounds of their anti-angiogenesis and proliferation inhibition activity and effect through EGFR on the cancer cells in vitro. The effect and activity is represented by the IC50 value that kills the cancer cell. […] The homo […] highly express EGFR are chosen and seeded to 96-well cell culture plate at a suitable concentration (exp 5000 cells/ml medium). The cells then are cultured in carbon dioxide (CO2) incubator till when they confluence to about 85%. Then, the cell culture medium is replaced by fresh one with tested compounds added in it at serial concentrations (general 6 to 7 concentrations). Then the cells are put back to the culture and cultured for continuous 72 hours. 72 hours later, the cell exposed to compounds and control cell are assayed for their proliferation using Sulforhodamine B (SRB) method. Compounds IC50 on tested cells are calculated by the data of inhibition rates of serial concentrations of the tested compounds. • a. Dimethyl sulfoxide (Sinophma chemical reagent company, catalog No. T20050806) • b. A431 cells (Purchased from Institute of biochemistry and cell biology) • c. Falcon 100 mm cell culture plates (Baton Dickison Labware, Baton Dickison and company, • Catalog No. 18677) • d. coming 96-well culture cluster (Corning Incorporated, Catalog No. 3599) • e. Fisher Pipette (Fisher scientific, Catalog No. 03-692-164) • f. DMEM/F12 cell medium (Gibco, Catalog No. 12400-024) • g. Fetal bovine serum, origin from Australia (Gibco, Catalog No. 10099-141) • h. […] Sulforhodamine B (Sigma, Catalog No. 3520-42-1) • k. Acetic Acid (Sinophma chemical reagent company, Catalog No. T20060508) • l. Trichloroacetic Acid (Sinophma chemical reagent company, Catalog No. T20060305) • m. Tris base (Amresco, Catalog No. 0826) • n. Class II A/B3 Biological safety cabinet (ThermoForma Catalog No. HB0053 03) • o. Series II water jacketed CO2 incubator (ThermoForma Model: 3111) • p. Centrifuge (Fisher Scientific Marathon 8 k, Catalog No. 0027-02) • q. Novastar Plate reader (BMG Labtech, Catalog No. 700 0081) • r. Orbital Shaker (Qilinbeier, Catalog No. TS-1) Protocol: […] Growing seeded 96-well plates at 37° C., 5% CO2, till 85% confluence. • 4. Prepare compounds stock solution, using DMSO solve candidate compounds to a concentration of 20 mM. […] Use cell culture medium (in this case, DMEM/F12+10% FBS) to dilute the compounds solution prepared above. Each DMSO serial concentration compound solution is diluted by 20 times with culture medium by adding 5 μl DMSO compound solution to 95 μl culture medium, then mix well by vortex. This promise that the DMSO concentration at that the A431 cell will exposed to will not surpass 0.5%. • 6. […] Each well added 180 μl medium, then add 20 μl medium solution of tested compounds prepared at step 5 to each well. For control group cell, add 20 μl culture medium containing 0.5% pure DMSO. […] Each 96-well plate, we can test 3 compounds with a control cell group. • 7. Put the culture plates back to incubator, culture for 72 hours at 37° C., 5% CO2. • 8. 72 hours later, remove cultures from incubator into sterile work area. • 9. Prepare fixative (50% Trichloroacetic Acid-TCA) by adding reagent grade water to the TCA, fix the cells by gently layering […] of cold TCA solution on top of the growth medium. • 10. Incubate plates for 1 hour at 4° C. and then rinse with water several times to remove TCA, serum proteins, etc. Plates are air dried and stored until use. Bland background optical density is measured in wells incubated with growth medium without cells. • 11. Use 10% acetic acid solution to prepare 0.4% Sulforhodamine B solution. Add 50 μl sulforhodamine B solution to each well of 96-well plates. • 12. […]

**Q.** With Cc1c(/C=C2\C(=O)Nc3ccc(F)cc32)[nH]c2c1C(=O)N(CCN1CCOCC1)CC2 [Example 15, 2-(5-Fluoro-2-oxo-1,2-dihydro-indol-3-ylidenemethyl)-3-methyl-5-(2-morpholin-4-yl-ethyl)-1,5,6,7-tetrahydro-pyrrolo[3,2-c]pyridin-4-one] as the molecule, how does the pIC50 read?
**A.** 5.87

Same assay, conditions: Homo sapiens, A-431; A431 cells, 72 hours exposure, Sulforhodamine B; read-out: IC50 (A431)

**Q.** CCN(CC)CCN1CCc2[nH]c(/C=C3\C(=O)Nc4c(NC(C)=O)cc(F)cc43)c(C)c2C1=O [Example 6, N-{3-[5-(2-Diethylamino-ethyl)-3-methyl-4-oxo-4,5,6,7-tetrahydro-1H-pyrrolo[3,2-c]pyridine-2-ylmethylene]-5-fluoro-2-oxo-2,3-dihydro-1H-indol-7-yl}-acetamide] was tested. Which pIC50 did it give?
**A.** 5.86

**Q.** With Cc1c(/C=C2\C(=O)Nc3ccc(NS(C)(=O)=O)cc32)[nH]c2c1C(=O)N(CCN1CCOCC1)CC2 [Example 22, N-{3-[3-Methyl-5-(2-mopholin-4-yl-ethyl)-4-oxo-4,5,6,7-tetrahydro-1H-pyrrolo[3,2-c]pyridine-2-ylmethylene]-2-oxo-2,3-dihydro-1H-indol-5-yl}-methanesulfonamide] as the molecule, how does the pIC50 read?
**A.** 5.55

**Q.** How did the pIC50 turn out when Cc1c(/C=C2\C(=O)Nc3cccc(-c4cccc(Cl)c4F)c32)[nH]c2c1C(=O)N(CCN1CCOCC1)CC2 [Example 48, 2-[4-(3-Chloro-2-fluoro-phenyl)-2-oxo-1,2-dihydro-indol-3-ylidenemethyl]-3-methyl-5-(2-morpholin-4-yl-ethyl)-1,5,6,7-tetrahydro-pyrrolo[3,2-c]pyridin-4-one] was run?
**A.** 5.21

**Q.** How did the pIC50 turn out when Cc1c(/C=C2\C(=O)Nc3cc(NC(=O)CO)c(F)cc32)[nH]c2c1C(=O)N(CCN1CCCCC1)CC2 [Example 61, N-{5-Fluoro-3-[3-methyl-4-oxo-5-(2-piperidin-1-yl-ethyl)-4,5,6,7-tetrahydro-1H-pyrrolo[3,2-c]pyridin-2-ylmethylene]-2-oxo-2,3-dihydro-1H-indol-6-yl}-2-hydroxy-acetamide] was run?
**A.** 5.90

**Q.** Cc1c(/C=C2\C(=O)Nc3cccc(-c4c(F)cccc4F)c32)[nH]c2c1C(=O)N(CCN1CCCCC1)CC2 [Example 63, 2-[4-(2,6-Difluoro-phenyl)-2-oxo-1,2-dihydro-indol-3-ylidenemethyl]-3-methyl-5-(2-piperidin-1-yl-ethyl)-1,5,6,7-tetrahydro-pyrrolo[3,2-c]pyridin-4-one] was tested. Which pIC50 did it give?
**A.** 6.28

**Q.** O=C(CO)Nc1cc2c(cc1F)/C(=C/c1[nH]c3c(c1-c1ccc(F)cc1)C(=O)NCC3)C(=O)N2 [Example 65, N-{5-Fluoro-3-[3-(4-fluoro-phenyl)-4-oxo-4,5,6,7-tetrahydro-1H-pyrrolo[3,2-c]pyridin-2-ylmethylene]-2-oxo-2,3-dihydro-1H-indol-6-yl}-2-hydroxy-acetamide] was tested. Which pIC50 did it give?
**A.** 5.51

**Q.** How did the pIC50 turn out when COCC(=O)Nc1cc2c(cc1F)/C(=C/c1[nH]c3c(c1-c1ccc(F)cc1)C(=O)NCC3)C(=O)N2 [Example 67, N-{5-Fluoro-3-[3-(4-fluoro-phenyl)-4-oxo-4,5,6,7-tetrahydro-1H-pyrrolo[3,2-c]pyridin-2-ylmethylene]-2-oxo-2,3-dihydro-1H-indol-6-yl}-2-methoxy-acetamide] was run?
**A.** 5.69

**Q.** With Cc1c(/C=C2\C(=O)Nc3cccc(CCO)c32)[nH]c2c1C(=O)N(CCN1CCCC1)CC2 [Example 75, 2-[4-(2-Hydroxy-ethyl)-2-oxo-1,2-dihydro-indol-3-ylidenemethyl]-3-methyl-5-(2-pyrrolidin-1-yl-ethyl)-1,5,6,7-tetrahydro-pyrrolo[3,2-c]pyridin-4-one] as the molecule, how does the pIC50 read?
**A.** 5.77

**Q.** Cc1c(/C=C2\C(=O)Nc3c(Br)cc(F)cc32)[nH]c2c1C(=O)N(CCN1CCCCC1)CC2 [Example 90, 2-(7-Bromo-5-fluoro-2-oxo-1,2-dihydro-indol-3-ylidenemethyl)-3-methyl-5-(2-piperidin-1-yl-ethyl)-1,5,6,7-tetrahydro-pyrrolo[3,2-c]pyridin-4-one] was tested. Which pIC50 did it give?
**A.** 6.57

**Q.** With Cc1c(/C=C2\C(=O)Nc3ccc(NC=O)cc32)[nH]c2c1C(=O)N(CCN1CCCCC1)CC2 [Example 91, N-{3-[3-Methyl-4-oxo-5-(2-piperidin-1-yl-ethyl)-4,5,6,7-tetrahydro-1H-pyrrolo[3,2-c]pyridin-2-ylmethylene]-2-oxo-2,3-dihydro-1H-indol-5-yl}-formamide] as the molecule, how does the pIC50 read?
**A.** 6.92

**Q.** Cc1c(/C=C2\C(=O)Nc3ncc(Br)cc32)[nH]c2c1C(=O)N(CCN1CCCCC1)CC2 [Example 93, 2-(5-Bromo-2-oxo-1,2-dihydro-pyrrolo[2,3-b]pyridin-3-ylidenemethyl)-3-methyl-5-(2-piperidin-1-yl-ethyl)-1,5,6,7-tetrahydro-pyrrolo[3,2-c]pyridin-4-one] was tested. Which pIC50 did it give?
**A.** 5.78

**Q.** Cc1c(/C=C2\C(=O)Nc3cc(NCc4ccc(F)cc4)c(F)cc32)[nH]c2c1C(=O)N(CCN1CCCCC1)CC2 [Example 94, 2-[5-Fluoro-6-(4-fluoro-benzylamino)-2-oxo-1,2-dihydro-indol-3-ylidenemethyl]-3-methyl-5-(2-piperidin-1-yl-ethyl)-1,5,6,7-tetrahydro-pyrrolo[3,2-c]pyridin-4-one] was tested. Which pIC50 did it give?
**A.** 6.47
